# Reference: patent US20260014278A1, “HYBRID PEPTIDE DENDRIMER SYSTEMS AND EXTRAHEPATIC DELIVERY” (NUNTIUS THERAPEUTICS LIMITED, priority 2022, published 2026)
# Experiments:
# [1] = tested on: Neuro2A cells; test: Luciferase plasmid (pCl-Luc) DNA transfection of Neuro2A cells; type: cell-based; conditions: for transfection, comparison of generations G1, G2, G3: pCl-Luc with D/D, 24 h, FIG. 16B
# Text: (§1) FIG. 15. Comparison of the transfection efficiency of G1,2,3-RL with other commercial transfection reagents including DOTMA/DOPE, Polyethylenimine and Lipofectamine 2000 for DNA delivery. (A) Transfection in HeLa cells without the presence of serum, (B) transfection in HeLa cells with the presence of serum, (C) transfection in Neuro2A cells without the presence of serum and (D) transfection in Neuro2A cells with the presence of serum. Cells transfected with a luciferase-expressing plasmid (pCl-Luc) in the presence of GSCG1,2,3-RL with D/D (measured 24 h after transfection). The luminescence values were normalized by dividing them by the analogous values for cells treated with a D/D DNA complex to generate the % of transfection. Conditions: 1×10^4 cells were transfected with 0.25 μg pCl-Luc for 4 hours without serum or in the presence of 10% serum. Error bars refer to the mean±SEM for experiments carried out in triplicate. […] D/D is DOTMA/DOPE at w/w 1:1.
# (§2) FIG. 16. Comparison of the transfection efficiency of dendrimers with different generations (G1, G2 and G3) with different N/P ratios and cationic residues (e.g. KL vs RL) for DNA delivery. (A) Transfection efficiency in HeLa cells, (B) transfection efficiency in Neuro2A cells. Cells transfected with a luciferase-expressing plasmid (pCl-Luc) in the presence of peptide dendrimers with D/D (measured 24 h after transfection). The luminescence values were normalized by dividing them by the analogous values for cells treated with a D/D DNA complex (w/w 1:1, 0.25 μg) to generate the % of transfection. Conditions: 1×10^4 cells were transfected with 0.25 μg pCl-Luc. Error bars refer to the mean±SEM for experiments carried out in triplicate. * denotes p<0.05. D/D is DOTMA/DOPE at w/w 1:1. Generation 2 and generation 3 dendrimers perform better at transfecting both HeLa and Neuro2A cells compared to generation 1 dendrimers.
# (§3) Using a third generation peptide dendrimer, GSCG1,2,3-RL, the inventors also compared the transfection efficiency of DNA using this dendrimer to that of commercially available transfection reagents. […]
# [2] = tested on: HeLa cells; test: Luciferase plasmid (pCl-Luc) DNA transfection of HeLa cells; type: cell-based, human; conditions: for transfection, comparison of generations G1, G2, G3: pCl-Luc with D/D, 24 h, FIG. 16A
# Text: as §1, §2, §3
# [3] = Dynamic light scattering: hydrodynamic size and polydispersity index (PDI) of nanoparticles; type: physicochemical
# Procedure: (§4) The hydrodynamic size was measured using the dynamic light scattering (DLS) technique. DLS is a very sensitive, non-invasive method to measure size and size distribution of nanoparticles in a liquid. […] Analysing these intensity fluctuations allows us to calculate the velocity of the Brownian motion. The size of the nanoparticles can be determined by using the Stokes-Einstein relationship. With the latest technology, it can measure nanoparticles smaller than 1 nm.
# PDI is used to estimate the average uniformity of a particle solution, The method of cumulants is a standard technique for analysing DLS data on sample polydispersity. PDI is a number calculated from a 2 parameter fit to the correlation data (the cumulants analysis). The cumulants analysis is used to evaluate the autocorrelation function generated by a DLS experiment. The calculation is defined in ISO 13321 and ISO 22412. PDI values greater than 0.7 indicate that the sample has a very broad size distribution and is not suitable for the DLS technique. The calculations for these parameters are defined in the ISO standard document 13321:1996 E and ISO 22412:2008.
# as §4, with “Size, zeta potential and polydispersity index (PDI) measurement: The hydrodynamic” for “The hydrodynamic”, “scattering (DLS) technique using the Zetasizer Advance Series—Pro (Malvern Panalytical Ltd, Malvern, UK) according to the manufacturer's instructions. DLS is” for “scattering (DLS) technique. DLS is”
# The data obtained with DLS measurements can also be used to calculate the PDI of particle in solution. PDI is used to estimate the average uniformity of a particle solution. The method of cumulants is a standard technique for analysing DLS data on sample polydispersity. PDI is a number calculated from a 2 parameter fit to the correlation data (the cumulants analysis). The cumulants analysis is used to evaluate the autocorrelation function generated by a DLS experiment. The calculation is defined in ISO 13321 and ISO 22412. PDI values greater than 0.7 indicate that the sample has a very broad size distribution and is not suitable for the DLS technique. The calculations for these parameters are defined in the ISO standard document 13321:1996 E and ISO 22412:2008.
# To measure the size and PDI, the samples were diluted 16× in 25 mM HEPES buffer (5 μl sample+75 μl buffer). Parameters: reference material: polystyrene latex, dispersant: water, 25° C. The PDI measurements were measured in nanoparticles comprising a dendrimer:nucleic acid NP ratio of 8:1.
# [4] = tested on: macrophage-polarised primary bone marrow derived monocytes; test: eGFP mRNA transfection of macrophage-polarised primary mouse bone marrow derived monocytes, flow cytometry; type: cell-based; conditions: GSCG1,2-RHL NP=0.6:1, GSCG1,2-RL, 3-LR NP=0.16:1, GSCG1,RL, 2-LR NP=8:1, DOTMA:DOPE w/w 10:1, lipid-only DOTMA/DOPE w/w 3.2:1, FIG. 2
# Procedure: BMDM cells were isolated using the StemCell Tech EasySep Mouse Monocyte Isolation Kit from mouse bone marrow cell suspension. The cells were resuspended in complete medium (DMEM+1% glutamax+10% heat inactivated FBS+1% Pen/Strep) enriched with 50 ng/ml murine M-CSF (1:1000 of 50 μg/ml stock) at 1E+6 cells/mi. 2 million cells (i.e. 2 mL) was seeded in each well of 6-well plate(s). The plate was incubated at 37° C. for 4 days. Half media exchange was performed using complete media enriched with […] murine M-CSF and 40 ng/ml murine IL-4. Cells were then harvested the next day (day 5) by washing cells with PBS and a 10 minute incubation with 5 mM EDTA (diluted in PBS) at 37° C. followed by plate tapping and resuspension. […]
# Data were collected using a BD LSRFortessa I analyser running […] software (Beckton Dickinson). All collected data were analysed using FlowJo 10.0 software.
# Transfection efficiency of macrophage-polarised primary bone marrow derived monocytes using various peptide dendrimer/lipid nanoparticles was assessed and compared to lipid-only nanoparticles (LPX-RNA). Each nanoparticle, with or without dendrimer, included eGFP mRNA to allow analysis of absolute numbers of cells transfected to be assessed by flow cytometry. […]
# [5] = tested on: human THP-1 cells; test: eGFP mRNA transfection of human THP-1 macrophages, flow cytometry; type: cell-based; conditions: GSCG1,2-RL, 3-LR NP=0.16:1, GSCG1-LRLR NP=0.6, GSCG1,2-RHL NP=5:1, GSCG1,2-RF, 3HL NP=0.6:1, RHCG1-R NP=0.6:1, DOTMA:DOPE w/w 10:1, lipid-only w/w 3.2:1, FIG. 3
# Procedure: THP-1 cells (a human leukaemia monocytic cell line) were sub-cultured in RPMI (with glutamax)+10% heat inactivated FBS (complete media) at 3E+5 cells/ml and passaged every 3-4 days. For macrophage polarisation 7.5E+6 cells were seeded in T75 flasks in a total of 20 ml complete media containing 5 ng/ml PMA (1:1000 of 5 ug/ml stock). The cells were transferred to the 37° C. incubator for overnight. After 24 hrs, THP-1 cells were washed with complete medium and a fresh flask complete medium (not containing PMA) was overlaid on the cells. After a further 72 hrs, the complete medium was exchanged for fresh complete media containing 20 ng/ml rhlL-4 (1:500 of 10 μg/ml stock). 24 hrs later the cells were harvested by firstly washing the cells with PBS followed by a 5 minute treatment at 37° C. with 5 mM EDTA (diluted in PBS). Cells were spun down at 300 g for 5 minutes and resuspended in a complete medium containing 20 ng/ml rhlL-4 at 2.4E+5 cells/mi. 500 ul of cells were seeded into each well on a 24-well plate and left overnight in the 37° C. incubator.
# The medium overlaying the polarised THP-1 cells was aspirated and exchanged with 480 ul/well complete media containing 20 ng/ml rhlL-4. […]
# Data were collected using a BD LSRFortessa I analyser running […] software (Beckton Dickinson). All collected data were analysed using FlowJo 10.0 software. […]
substance,measurement,setting,value
(KL)2KGSC-NH2 [GSCG1-KL],"transfection, comparison of generations G1, G2, G3",[1],do not transfect
same,"transfection, comparison of generations G1, G2, G3",[2],do not transfect
"(LR)4(KRL)2KRHC-NH2 [RHCG1-RL, 2-LR]",Polydispersity Index (PDI),"[3]; peptide dendrimer, lipid and mRNA complexes, N:P 8:1, DOTMA/DOPE w/w 10:1 to mRNA",0.109
same,transfection efficiency,[4],~50%
(R)2KRHC-NH2 [RHCG1-R],PDI,"[3]; Table 7, first generation dendrimers for mixed dendrimer nanoparticles",0.566
same,transfection efficiency,[5],30-35%
(RL)2KGSC-NH2 [GSCG1-RL],"transfection, comparison of generations G1, G2, G3",[1],do not transfect
same,"transfection, comparison of generations G1, G2, G3",[2],do not transfect
"(RL)4(KRL)2KGSC-NH2 [GSCG1,2-RL]","transfection efficiency in comparison to GSCG1,2-KL","[1]; N/P ratio of 20:1, FIG. 16",higher transfection efficiency
same,"transfection efficiency in comparison to GSCG1,2-KL","[2]; N/P ratio of 10:1 or 20:1, FIG. 16",higher transfection efficiency
